Experimental data as given in patent US12319726B2, “Method for treating CD40-mediated diseases” (CASE WESTERN RESERVE UNIVERSITY, priority 2008, dated 2025).
Where a SMILES comes first, the peptide text is derived from it. [ ]: non-standard residue; d: D form.

Key:
[1] = tested on: retinas subjected to I/R; assay: Model of retinal ischemia/reperfusion (I/R), intravitreal peptide; type: in vivo, B6 mice
Protocol: FIGS. 20(A-C) illustrate images and graphs showing ri CD40-TRAF2,3 blocking peptide protects against loss of ganglion cells and leukocyte infiltration in retinas subjected to I/R. One eye from each B6 and CD40^−/− mouse was subjected to I/R. Contralateral non-ischemic eye was used as control. Eyes subjected to I/R in B6 mice were treated intravitreously with or without ri control peptide, ri CD40-TRAF2,3 blocking peptide (both 1 μg) 30 min prior to increase in IOP. Eyes were collected 2 d after I/R. A marked decrease in the number of ganglion cells is observed in ischemic eyes from B6 treated with ri control peptide or vehicle (original magnification ×400). […] Arrowhead plus asterix identifies a PMN magnified in the inset (original magnification ×600). Scale bar, 50 μm. Number of ganglion cells per mm. Number of infiltrating leukocytes in the inner retina and vitreous per section. GCL=Ganglion cell layer; IPL=Inner plexiform layer; INL=Inner nuclear layer. OPL=Outer plexiform layer; ONL=Outer nuclear layer. Data shown represent Mean±SEM (9 mice per group). *P<0.05; **P<0.01; […].
FIG. 21 illustrates graphs showing ri CD40-TRAF2,3 blocking peptide impairs upregulation of NOS2 and COX-2 in retinas subjected to I/R. One eye of each mouse was treated as above and subjected to I/R. Eyes were collected after 2 d. mRNA levels of NOS2 and COX-2 were assessed by quantitative real time PCR. One non-ischemic eye from a B6 mouse was given an arbitrary value of 1 and data are expressed as fold-increase compared to this animal. Data shown represent Mean±SEM (7-9 mice per group). ***P<0.001.
FIGS. 22(A-B) illustrate graphs and images showing ri CD40-TRAF2,3 blocking peptide impairs upregulation of ICAM-1 and KC/CXCL1 in retinal endothelial cells from retinas subjected to I/R. One eye of each mouse was subjected to I/R. Eyes were collected after 2 d. mRNA levels of ICAM-1 and KC/CXCL1 were assessed by quantitative real time PCR. One non-ischemic eye from a B6 mouse was given an arbitrary value of 1 and data are expressed as fold-increase compared to this animal. Data shown represent Mean±SEM (7-9 mice per group). ***P<0.001. Retinal sections were incubated with Tomato Lectin (labels endothelial cells) plus either anti-ICAM-1 or anti-KC/CXCL1 Ab. Original magnification ×600. GCL=Ganglion cell layer; IPL=Inner plexiform layer; INL=Inner nuclear layer. Scale bar, 10 μm. 6 mice/group.
FIG. 23 illustrates images showing ri CD40-TRAF2,3 blocking peptide impairs NOS2 and KC/CXCL1 upregulation in Müller cells from retinas subjected to I/R. Eyes from B6 mice were treated with control peptide or CD40-TRAF2,3 blocking peptide, subjected to I/R and collected after 2 d. Retinal sections were incubated with anti-Vimentin Ab (labels Müller cells) plus either anti-NOS2 or anti-KC/CXCL1 Ab. Protein expression at the level of Müller cells stalks. […]. Original magnification ×600. Scale bar, 10 μm. 6 mice/group.
FIGS. 24(A-D) illustrate images and graphs showing ri CD40-TRAF2,3 blocking peptide protects against loss of ganglion neurons and inflammation when administered after retinal I/R. One eye from each B6 mouse was subjected to I/R. Non-ischemic eyes were used as controls. Eyes that were subjected to I/R received either ri control peptide or ri CD40-TRAF2,3 blocking peptide 90 min after increase in IOP. Eyes were collected 2 d after I/R. Administration of the blocking peptide protects against ganglion cell loss and infiltration by leukocytes (arrowhead). Original magnification ×400. Scale bar, 50 μm. Number of ganglion cells per mm. Number of leukocytes in the inner retina and vitreous per section. mRNA levels of ICAM-1, KC/CXCL1, NOS2 and COX-2 were assessed by quantitative real time PCR as above. Data shown represent Mean±SEM (7-9 mice per group). **P<0.01; ***P<0.001. GCL=Ganglion cell layer; IPL=Inner plexiform layer; INL=Inner nuclear layer. […]

[2] = tested on: human Müller cells; type: cell-based
Excerpt: Peptide consisted of the TRAF2,3 binding site of CD40 that was made cell permeable by linking them to the TAT47-57 cell penetrating peptide. Peptides were synthesized using D-amino acids following reverse amino acid sequence (ri format). The sequences for the CD40-TRAF2,3 blocking peptide was —NH2-rrrqrrkkrgy ghlteqvhaatn-OH (SEQ ID NO: 49). The TAT47-57 sequence is underlined. The peptide contains a proline (p) to histidine (h) substitution (shown in italics) that enhances affinity to TRAF2. Control (scrambled) peptide consisted of NH2-rrrqrrkkrgy ntqalahtgevh-OH (SEQ ID NO: 50). The blocking peptide was also synthesized with Alexa Fluor 488 conjugated via maleimide coupling to an additional Cys in the N terminus. Peptides were manufactured by Biopeptide Co. (San Diego, CA) and were low in endotoxin and >98% pure by HPLC. Peptides were used at 1 μM in vitro experiments and 1 μg for in vivo studies unless otherwise stated. Peptides were not toxic to human Müller and retinal endothelial cells as assessed by alamarBlue cell viability assay (Invitrogen Corporation).
Primary human retinal endothelial cells were obtained as described (9) and cultured in complete medium supplemented with endothelial cell growth supplement from bovine pituitary (15 μg/ml; Sigma Chemical, St Louis, MO) and insulin/transferrin/selenium (Sigma Chemical). Cell identity was confirmed by incorporation of acetylated low-density lipoprotein (>90%). Endothelial cells were used between passages 3 to 6. The human Müller cell line MIO M1 (gift from Dr. Gloria Limb; University College London, UK; >95% vimentin^+, CRALBP^+ and GFAP^−) was also used. Endothelial cells were incubated with multimeric human CD154 to induce CD40 stimulation (obtained from Dr. Richard Kornbluth, Multimeric Biotherapeutics Inc., La Jolla, CA) or with a non-functional CD154 mutant (T147N) as control.
Peptides were tested as described using the mouse endothelial cells mHEVc that expresses a chimera of the extracellular domain of human CD40 and intracytoplasmic domain of mouse CD40 (hmCD40) with either a mutation that prevents recruitment of TRAF2,3 (hmCD40 ΔT2,3) or TRAF6 (hmCD40 ΔT6). These cells were transfected with pGL4.32luc2P/NF-κB-RE/Hygro vector (Promega Corporation, Madison, WI) encoding an NF-κB response element that drives the luciferase reporter gene luc2P (Photinus pyralis). Cells were pre-incubated with peptides for 3 hr. followed by stimulation with human CD154. Luciferase activity was assessed using a Steady-Glo luciferase assay system (Promega Corporation) and a luminometer. The effects of peptides on cell viability were examined using alamarBlue cell viability assay.

[3] = 1 μg intravitreal prior to I/R, 2 d, real time PCR
[4] = peptide administered 90 min post-retinal ischemia, 2 d, mRNA
[5] = prior to I/R, 2 d, immunohistochemistry

CC(C)C[C@@H](NC(=O)[C@@H](Cc1c[nH]cn1)NC(=O)CNC(=O)[C@@H](Cc1ccc(O)cc1)NC(=O)CNC(=O)[C@@H](CCCNC(=N)N)NC(=O)[C@@H](CCCCN)NC(=O)[C@@H](CCCCN)NC(=O)[C@@H](CCCNC(=N)N)NC(=O)[C@@H](CCCNC(=N)N)NC(=O)[C@@H](CCC(N)=O)NC(=O)[C@@H](CCCNC(=N)N)NC(=O)[C@@H](CCCNC(=N)N)NC(=O)[C@H](N)CCCNC(=N)N)C(=O)N[C@@H](C(=O)N[C@H](CCC(=O)O)C(=O)N[C@H](CCC(N)=O)C(=O)N[C@@H](C(=O)N[C@H](Cc1c[nH]cn1)C(=O)N[C@H](C)C(=O)N[C@H](C)C(=O)N[C@@H](C(=O)N[C@H](CC(N)=O)C(=O)O)[C@H](C)O)C(C)C)[C@H](C)O [ri CD40-TRAF2,3 blocking peptide, NH2-rrrqrrkkrgy ghlteqvhaatn-OH] (H-[dR][dR][dR][dQ][dR][dR][dK][dK][dR]G[dY]G[dH][dL][dT][dE][dQ][dV][dH][dA][dA][dT][dN]-OH)
COX-2 mRNA levels in retina [1, 3]: impaired upregulation
ICAM-1 mRNA levels in retina [1, 3]: significant reduction
KC/CXCL1 mRNA levels in retina [1, 3]: significant reduction
NOS2 mRNA levels in retina [1, 3]: impaired upregulation
PMN infiltration in the inner retina and vitreous ([1]; 1 μg intravitreal prior to I/R, 2 d after I/R): diminished inflammatory infiltrate
loss of ganglion cells ([1]; 1 μg intravitreal prior to I/R, eyes collected 2 d after I/R): significant attenuation in the loss of ganglion cells
leukocyte recruitment ([1]; peptide administered 90 min post-retinal ischemia, 2 d): protected against
upregulation of COX-2 [1, 4]: protected against
upregulation of ICAM-1 [1, 4]: protected against
upregulation of KC/CXCL1 [1, 4]: protected against
upregulation of NOS2 [1, 4]: protected against
ganglion cell loss ([1]; peptide administered 90 min post-retinal ischemia, eyes collected 2 d after I/R): protected against
expression of ICAM-1 in retinal endothelial cells [1, 5]: decreased expression
expression of KC/CXCL1 in Müller cells [1, 5]: impaired expression
expression of KC/CXCL1 in retinal endothelial cells [1, 5]: decreased expression
expression of NOS2 in Müller cells [1, 5]: impaired expression
toxicity (alamarBlue cell viability assay) [2]: not toxic
